Assay results: publication PMC6858451, “Rhesus Theta Defensin 1 Promotes Long Term Survival in Systemic Candidiasis by Host Directed Mechanisms” (Scientific Reports, 2019)
Entries after “also recorded” stand apart in the source; their conditions may differ. Bridge positions count the residues as written; N and C are the ends. Peptide text beside a SMILES is read from it.

Key:
C. albicans 43001 = assay: Kinetics of candidacidal activity, liquid suspension assay; type: cell-based; conditions: PIPES-glucose buffer
Protocol: (§1) Kinetics of RTD-1 candidacidal activity was determined at peptide concentrations ranging from 0 to 10 µg/ml using a liquid suspension assay described previously. Overnight cultures of C. albicans 53264 or 43001 were grown to mid-log phase in 5% yeast peptone dextrose broth (YPD) (Difco) at 30 °C. Approximately 2 × 10^6 CFU/ml were incubated with 0, 0.3, 1, 3 and 10 µg/ml RTD-1 or 10 µg/ml caspofungin, suspended in 10 mM PIPES, pH 7.4, plus 5 mM glucose (PG), in 96-well plates with shaking at 60 RPM at 37 °C. At timed intervals, samples were diluted 1:1000 fold into PG buffer and aliquots plated onto YPD agar plates (TekNova), and surviving organisms quantified by colony counting after incubation for 24 h at 30 °C.

C. albicans 53264 [1] = assay: as above; type: cell-based; conditions: PIPES-glucose buffer
Protocol: as §1

[2] = system: C. albicans SC5314 biofilms; assay: Biofilm XTT metabolic assay; type: cell-based
Protocol: The antifungal activities of RTD-1, caspofungin and fluconazole were evaluated against biofilms of C. albicans SC5314 and 53264 essentially as described by Pierce et al.[67]. Briefly, biofilms established for 0 h (preadhesion), 2 h (adherent), or 24 h (mature) were developed by adding 1 × 10^5 yeast cells in 50 or 100 µl of RPMI-1640 to wells of flat-bottom 96-well microtiter plates (Costar, Corning, NY). Fifty or 100 µl aliquots of serial 2-fold dilutions of peptide or antifungal drugs were added to wells in triplicate and incubated for 24 h or 48 h prior to analysis of biofilm metabolic activities. Concentrations of reagents used were as follows: RTD-1 - 0.09 – 100 µg/ml (0.05–48 µM), Fluco – 1–250 µg/ml (3.3–816.3 µM); Caspo- 0.003–8 µg/ml ([…]–7.3 µM). Analysis of the effect of each agent on Candida biofilms was performed using an XTT colorimetric assay. One hundred µl of 1 µM XTT/menadione added to each biofilm well, plates were incubated in the dark for 3 h at 37 °C, and 80 µl of supernatant was transferred to a new 96-well flat-bottom microtiter plate (Greiner Bio-one, Monroe, NC). Absorbance was measured at 490 nm on a SpectraMax® i3x (Molecular Devices). Readings were plotted as average of triplicates after subtracting the corresponding values for negative controls (XTT/menadione only).

C. albicans 53264 [3] = assay: Systemic MDR candidiasis model, survival and renal fungal burden; type: in vivo, CD-1 mice; conditions: for survival (log-rank): 1.8 × 10^7 blastospores i.v., 40 days
Protocol: (as in Fig. 3d). CD-1, rather than BALB/c mice were used in the C. albicans 53264 challenge studies as this mouse strain was employed by Wiederhold et al. in the assessment of caspofungin efficacy against this pathogen. […] Fungal burdens were determined in kidneys of long term survivors in the RTD-1, Caspo, and Fluco-treated cohorts (euthanized at day 40) and from moribund mice from the survival study in Fig. 7a.
(§2) BALB/c female mice (7–8 weeks old) and CD-1 female mice (4–5 weeks old) were obtained from Charles River Laboratories and allocated randomly in groups of five mice per cage. Mice were maintained on a 12 h light/dark cycle in thermostatically controlled rooms for the duration of the experiment. C. albicans inocula were prepared fresh each day from saturated cultures grown overnight in YPD medium, washed in sterile PBS, and fungi were counted with hemocytometer. Stock suspensions were prepared in sterile PBS. BALB/c mice were challenged with 2 × 10^6 CFU/ml wild-type C. albicans reference strain SC5314, while CD-1 mice were challenged with 1.8 × 10^7 CFU/ml (0.15–0.2 ml) C. albicans clinical isolate 53264 by i.v. injection into the lateral caudal tail vein using a 28 G 1/2 inch needle. Animals were treated by i.v., s.c., or i.p. routes immediately post-infection (p.i.) or 24 h p.i. with sterile saline (control), RTD-1, fluconazole, or caspofungin administered at the concentrations indicated in a 0.200 ml. Mice were weighted and monitored daily for general clinical condition. Mice were euthanized as approved by the USC IACUC and in compliance with the National Institutes of Health Guide for the Care and Use of Laboratory Animals. All experiments were repeated at least three times.
(§3) To assess systemic fungal clearance, renal fungal burden was determined. Mice were euthanized at times indicated, and both kidneys were weighed, homogenized in 5 ml of sterile PBS, and serial dilutions of homogenate were plated on YPD agar plates and incubated at 30 °C for 2 days. CFU per gram of kidney was calculated.

C. albicans SC5314 = assay: Systemic candidiasis model, survival and renal fungal burden; type: in vivo, BALB/c mice
Protocol: The efficacy of RTD-1 in vivo was evaluated in an established model of systemic candidiasis using C. albicans SC5314. Both immunocompetent and immunosuppressed mouse models are employed in preclinical studies of systemic candidiasis. Since many of our preliminary studies employed the […] model, we conducted efficacy studies with RTD-1 and reference antifungal drugs in immunocompetent BALB/c mice. Mice were challenged i.v. with 3 × 10^5 blastospores at T = 0, which rapidly produces disseminated candidiasis and colonizes major organs in a manner resembling systemic candidiasis in humans. […] We analyzed the effect of a single 5 mg/kg dose of RTD-1 administered i.v., s.c., or i.p. immediately after i.v. fungal challenge, with i.p. saline as vehicle control. Fluco and Caspo, administered i.p. at 5 mg/kg, were used as drug comparators. […] In subsequent studies, antifungal agents were administered i.p. to circumvent potentially confounding effects resulting from treatment by the same route as infection, which was i.v. in all experiments.
as §2, §3

[4] = 5 mg/kg i.p. once per day for 7 days beginning 24 h p.i.
[5] = 5 mg/kg i.p. once a day for 7 days, first dose 24 h after infection, 30 d
[6] = 3 µg/ml, by 30 min of incubation

SMILES | fungicidal activity, time-kill (C. albicans 43001; 10 µg/ml, 0–60 min) | fungicidal activity, time-kill (C. albicans 53264 [1]; 10 µg/ml, 0–60 min) | biofilm inhibition (XTT) ([2]; 2- and 24 h biofilms) | survival (log-rank) (C. albicans 53264 [3]; [4]) | survival (C. albicans SC5314; [5]) | survival (C. albicans SC5314; single 5 mg/kg dose at T = 0 (RTD-1 i.v., s.c. or i.p.; Fluco, Caspo i.p.), 3 × 10^5 blastospores i.v., 30 days, vs saline, 5 mg/kg) | fungicidal activity, time-kill (C. albicans 43001; [6]) | fungicidal activity, time-kill (C. albicans 53264 [1]; [6]) | biofilm inhibition (XTT) ([2]; pre-adhesion, 2 h adherent and 24 h mature biofilms) | survival endpoint analysis (χ2) at day 40 p.i. (C. albicans 53264 [3]; [4]) | kidney fungal burden (CFU/g) (C. albicans 53264 [3]; long term survivors, day 40, vs moribund saline controls) | kidneys with no culturable organisms detected (C. albicans SC5314; long term survivors, day 30 p.i.) [%] | kidney fungal burden (CFU/g) (C. albicans SC5314; long term survivors, day 30 p.i., treated i.p. at T = 0, vs moribund saline treated mice) | survival (C. albicans SC5314; single 5 mg/kg dose at T = 0 (RTD-1 i.v., s.c. or i.p.; Fluco, Caspo i.p.), 3 × 10^5 blastospores i.v., 30 days, vs saline) | kidney fungal burden (CFU/g) (C. albicans SC5314; single 5 mg/kg i.p. at T = 0, by day 3 p.i., vs saline) | survival (C. albicans SC5314; single i.p. 5 mg/kg, administration delayed 24 h or 72 h (data not shown)) | survival (C. albicans SC5314; single i.p. 5 mg/kg, treatment delayed 1, 3 or 6 h after infection) | survival (C. albicans SC5314; single i.p. dose 20 mg/kg at T = 0, vs saline) | survival (C. albicans SC5314; single i.p. dose 10 and 20 mg/kg at T = 0, compared with 5 mg/kg Fluco) | survival (C. albicans SC5314; single i.p. dose at T = 0, all doses of 0.1–20 mg/kg except 0.1 and 20 mg/kg, vs saline)
CC[C@H](C)C[C@H](C)CCCCCCCCC(=O)N[C@H]1C[C@@H](O)[C@@H](NCCN)NC(=O)[C@@H]2[C@@H](O)CCN2C(=O)[C@H]([C@H](O)CCN)NC(=O)[C@H]([C@H](O)[C@@H](O)c2ccc(O)cc2)NC(=O)[C@@H]2C[C@@H](O)CN2C(=O)[C@H]([C@@H](C)O)NC1=O [Caspo, caspofungin] | very little activity | very little activity | reduced at concentrations >2 µg/ml | significantly (P < 0.0001) improved survival | markedly enhanced survival | effective in enhancing survival; also recorded: superior to RTD-1 and Fluco treatment |  |  |  |  |  |  |  |  |  |  |  |  |  | 
CC[C@H](C)[C@@H]1NC(=O)[C@@H]2CSSC[C@H](NC(=O)[C@H](CCCNC(=N)N)NC(=O)[C@@H]3CSSC[C@H](NC1=O)C(=O)N[C@@H]([C@@H](C)O)C(=O)N[C@@H](CCCNC(=N)N)C(=O)NCC(=O)N[C@@H](Cc1ccccc1)C(=O)N3)C(=O)N[C@@H](CC(C)C)C(=O)N[C@H]1CSSC[C@H](NC(=O)[C@H](C(C)C)NC(=O)CNC(=O)[C@H](CCCNC(=N)N)NC(=O)[C@H](CCCNC(=N)N)NC1=O)C(=O)N[C@@H](CCCNC(=N)N)C(=O)N2 [RTD-1, Rhesus theta (θ) defensin-1] (cyclo(GFCRCLCRRGVCRCICTR); disulfide 3-16, 5-14, 7-12 (inferred); ring closure inferred) |  |  | much more effective than Fluco | significantly (P < 0.0001) improved survival; also recorded: superior to Caspo (P = 0.029) but not Fluco | markedly enhanced survival; also recorded: more effective in enhancing survival than Fluco, and was nearly equivalent to Caspo |  | sterilized the incubation mixture | sterilized the incubation mixture | inhibited biofilms of drug sensitive SC5314 at each time point, but less effectively than Caspo | superior to Fluco (P = 0.01) and Caspo (P = 0.001) | significantly (P = 4.1 × 10^−5) reduced fungal burden | 50 | markedly reduced kidney fungal burden; also recorded: substantially more effective than treatment with Fluco | significantly enhanced survival regardless of the routes of administration | markedly reduced fungal burden | no survival enhancement | enhanced survival compared to saline control | significantly accelerates death | less effective than Fluco | enhanced survival significantly
